These results are taken from article PMC7139904, “Structural Requirements of Benzofuran Derivatives Dehydro-δ- and Dehydro-ε-Viniferin for Antimicrobial Activity Against the Foodborne Pathogen Listeria monocytogenes” (International Journal of Molecular Sciences, 2020).

Values after ≈ are worked out from the molar mass of the structure shown. “Also recorded” adds a separate entry of the source. Read-outs that look alike come from different tables or passages of the source. Marks after values point to notes of the source that are not given here. Where only a bound is given, the exact number is not on record here.

Series [1] concerns WS1 fibroblast cells. Put plainly: Cytotoxicity, growth inhibition assay (MTS) on normal skin fibroblasts. In kind it is cell-based, human. As to conditions: for IC50: WS1 cells, 48 h exposure, MTS assay, mean ± SD of three independent experiments; for Selectivity: concentration with cytotoxic effects on WS1 relative to MIC against L. monocytogenes: WS1 IC50 (µM) compared with MIC (µM) on L. monocytogenes Scott A. As to the method:
(§1) The normal human skin WS1 fibroblast cells (ATCC CRL-1502) were cultured in Eagle’s Minimum Essential Medium plus 10% fetal bovine serum at 37 °C and 5% CO2. Cytotoxic potency was assessed by a growth inhibition assay (CellTiter 96® AQueous One Solution Cell Proliferation Assay MTS, Promega). The cells were seeded in a 96-well plate, and 24 h later were exposed to the compounds (concentration range 1−200 μM). After 48 h of exposure, 20 μL of 3-(4,5-dimethylthiazol-2-yl)-5-(3-carboxymethoxyphenyl)-2-(4-sulfophenyl)-2H-tetrazolium salt was added to each well. The absorbance was measured using a FLUOstar OPTIMA plate reader (BMG Labtech GmbH, Offenburg, Germany) at 492 nm after 4 h of incubation at 37 °C in 5% CO2. The IC50 was defined as the drug concentration causing 50% cell growth inhibition, determined by the dose−response curves. Experiments were performed in triplicate.
A general note: Tetrazolium assays rely on reduction of a dye to a coloured formazan, in cell work by metabolically active cells.

In series [2] the test system is L. monocytogenes Scott A. Put plainly: Minimal inhibitory concentration (MIC) and minimal bactericidal concentration (MBC), 96-well plate broth assay. In kind it is cell-based, Listeria monocytogenes. As to conditions: for MBC: value in brackets. The method, then:
All synthesized derivatives were stored in dry form at -20 °C and dissolved in DMSO at a final concentration of 4.096 mg/mL prior to their use in the MIC and MBC determination. Briefly, L. monocytogenes was cultivated in Brain […] Infusion (BHI) broth (Sigma, Italy) at 37 °C for 24 h under a shaking condition (200 rpm). After the growth, the cells were diluted in BHI to 0.2 OD 600 nm and then used for the 96-well plate inoculum. The concentrations tested ranged from 1 up to 512 μg/mL. The assay was carried out in triplicate in a 96-well plate, according to Mattio et al., 2019 [4].

In series [3] the test system is L. monocytogenes LMG 16,779. Set-up: method as in PMID 26867522. As to conditions: cited from earlier work.
Series [4] in a line: Cytotoxicity, growth inhibition assay (MTS) on normal skin fibroblasts. It is filed as cell-based, human. The settings on record: human, WS1 normal skin fibroblast cells; WS1 IC50 (µM) compared with MIC (µM) on L. monocytogenes Scott A; read-out: Selectivity: concentration with cytotoxic effects on WS1 relative to MIC against L. monocytogenes. As to the method:
as §1

The mark [5] stands for this setting: Listeria monocytogenes, BHI broth, tested 1 up to 512 µg/mL, triplicate, read-out: MIC.
Setting [6] is: Listeria monocytogenes, MIC as µM concentration, read-out: MIC.
The mark [7] stands for this setting: Listeria monocytogenes, tested 1 up to 512 µg/mL, triplicate, read-out: MBC.
Where [8] appears, read: Listeria monocytogenes, 24 h, BHI broth, tested 1 up to 512 µg/mL, triplicate, read-out: MIC.
Where [9] appears, read: BHI broth, tested 1 up to 512 µg/mL, triplicate.
Where [10] appears, read: MIC as µM concentration, read-out: MIC.
Setting [11] is: tested 1 up to 512 µg/mL, triplicate.

Regarding `COc1ccc(-c2oc3cc(OC)ccc3c2-c2cc(OC)cc(OC)c2)cc1` [Compound 11], the IC50 (commonly the concentration at which inhibition is half-maximal) in series [1] (Homo sapiens, WS1, 48 h) is greater than 100 µM. For the same molecule, in series [2], the “Antimicrobial activity, result in words” value was “inactive”. In addition, the figures for the MIC in series [2] (setting [5]) and in series [2] (setting [6]) were greater than 256 µg/mL and 656 µM, respectively. The MBC in series [2] (setting [7]) was greater than 256 µg/mL.
As to `Oc1ccc(/C=C/c2cc(O)cc(O)c2)cc1` [resveratrol], the IC50 in series [1] (Homo sapiens, WS1, 48 h) is greater than 200 µM. The “MIC” value in series [3] (MIC as µM concentration) is 876 µM (≈ 200 µg/mL); in series [3], 200 (-) ^c µg/mL.
For the molecule `COc1ccc(-c2cc3cc(/C=C/c4cc(OC)cc(OC)c4)ccc3o2)cc1` [Compound 10], the IC50 in series [1] (Homo sapiens, WS1, 48 h) was greater than 100 µM. Further, the “Antimicrobial activity, result in words” value in series [2] was “inactive”. In addition, the MIC in series [2] (setting [5]) is greater than 256 µg/mL; in series [2] (setting [6]) it was 662 µM. Further, the MBC in series [2] (setting [7]) was greater than 256 µg/mL.
On to `Oc1ccc(-c2oc3cc(O)ccc3c2-c2cc(O)cc(O)c2)cc1` [Compound 6], for which half-maximal inhibition in series [1] (Homo sapiens, WS1, 48 h) (IC50) was put at 98.5 ± 2 µM. Also, the MIC in series [2] (setting [8]) is 64 µg/mL; in series [2] (setting [5]) it was 64 µg/mL; in series [2] (setting [6]), 191 µM. Further, the MBC in series [2] (setting [7]) is greater than 512 µg/mL.
The molecule `Oc1ccc(/C=C/c2cc(O)cc3occ(-c4cc(O)cc(O)c4)c23)cc1` [Compound 8] registered an IC50 in series [1] of 85 ± 4.6 µM. The MIC is 64 µg/mL in series [2] (setting [9]) and 178 µM in series [2] (setting [10]). In addition, in series [2] (setting [11]), the MBC is on record as greater than 512 µg/mL.
The molecule `Oc1ccc(/C=C/c2cc(O)cc3occ(-c4cc(O)cc(O)c4)c23)cc1` [Compound 7] registered an IC50 in series [1] (Homo sapiens, WS1, 48 h) of 45 ± 1.2 µM. Moreover, the “Selectivity: concentration with cytotoxic effects on WS1 relative to MIC against L. monocytogenes” value in series [1] is “two-fold higher; also recorded: at least two-times higher”. In addition, the MIC is reported as 8 µg/mL in series [2] (setting [9]) and 23.2 µM in series [2] (setting [10]). The MBC in series [2] (setting [11]) is reported as 64 µg/mL (≈ 178 µM).
`Oc1ccc(-c2oc3ccccc3c2-c2cc(O)cc(O)c2)cc1` [Compound 3] came in with an IC50 in series [1] (Homo sapiens, WS1, 48 h) of 98.7 ± 1.8 µM. Also, the “Selectivity: concentration with cytotoxic effects on WS1 relative to MIC against L. monocytogenes” value in series [1] is “two-fold higher; also recorded: at least two-times higher”. The results for the MIC in series [2] (setting [8]), in series [2] (setting [5]) and in series [2] (setting [6]) were 16 µg/mL, 16 µg/mL and 50.3 µM, respectively. The MBC in series [2] (setting [7]) came out at 64 µg/mL (≈ 201 µM).
On to `Oc1ccc(-c2oc3ccc(/C=C/c4cc(O)cc(O)c4)cc3c2-c2cc(O)cc(O)c2)cc1` [Compound 1, dehydro-δ-viniferin], for which the selectivity ratio at 48 h in series [4] is roughly 10. This molecule yielded an IC50 in series [1] (Homo sapiens, WS1, 48 h) of 37 ± 1.4 µM. The MIC in series [2] (setting [8]) turned out to be 2 µg/mL; in series [2] (setting [5]) it was 2 µg/mL; in series [2] (setting [6]) it was 4.42 µM. Besides, the MBC in series [2] (setting [7]) is 16 µg/mL (≈ 35.4 µM).
As to `[H]/N=C(\N/C(=N/[H])NCCCCCCNC(=N)NC(=N)Nc1ccc(Cl)cc1)Nc1ccc(Cl)cc1` [Chlorhexidine, reference compound], the MIC in series [2] (setting [5]) turned out to be 8 µg/mL; in series [2] (setting [6]), 15.8 µM. Further, the MBC in series [2] (setting [7]) came to 32 µg/mL (≈ 63.3 µM).
In series [1] (Homo sapiens, WS1, 48 h), `Oc1cc(O)cc(/C=C/c2ccc3occ(-c4cc(O)cc(O)c4)c3c2)c1` [Compound 5] came in with an IC50 of 96.8 ± 4.5 µM. For the same molecule, in series [1], the “Selectivity: concentration with cytotoxic effects on WS1 relative to MIC against L. monocytogenes” value is given as “two-fold higher; also recorded: at least two-times higher”. Also, the MIC in series [2] (setting [5]) was 16 µg/mL; in series [2] (setting [6]), 44.4 µM. Besides, in series [2] (setting [7]), the MBC worked out at 64 µg/mL (≈ 178 µM).
On to `COc1cc(/C=C/c2ccc3oc(-c4ccc(O)cc4)cc3c2)cc(OC)c1` [Compound 9], for which the midpoint of inhibition in series [1] (Homo sapiens, WS1, 48 h), the IC50, lay at 95 ± 2.3 µM. Also, in series [2], the “Antimicrobial activity, result in words” value was “inactive”. The values for the MIC in series [2] (setting [8]), in series [2] (setting [5]) and in series [2] (setting [6]) were greater than 512 µg/mL, greater than 512 µg/mL and 1370 µM, respectively. The MBC in series [2] (setting [7]) was greater than 512 µg/mL; in series [2] (setting [11]) it was >512 (>512) µg/mL.
Molecule `Oc1ccc(-c2cc3cc(/C=C/c4cc(O)cc(O)c4)ccc3o2)cc1` [Compound 4] registered an IC50 in series [1] (Homo sapiens, WS1, 48 h) of 97.8 ± 3 µM. For the same molecule, the “Antimicrobial activity, result in words” value in series [2] was “completely inactive”. The results for the MIC in series [2] (setting [8]), in series [2] (setting [5]) and in series [2] (setting [6]) were 256 µg/mL, 256 µg/mL and 743 µM, respectively. In series [2] (setting [7]), the MBC was greater than 512 µg/mL.
In series [1] (Homo sapiens, WS1, 48 h), `COc1cc(/C=C/c2ccc(O)cc2)cc(OC)c1` [pterostilbene, reference compound] displayed an IC50 of 57 ± 10 µM. Further, the MIC came out at 64 µg/mL in series [2] (setting [8]), 64 µg/mL in series [2] (setting [5]) and 250 µM in series [2] (setting [6]). The MBC in series [2] (setting [7]) amounted to 128 µg/mL (≈ 499 µM).
The molecule `Oc1ccc(/C=C/c2cc(O)cc3oc(-c4ccc(O)cc4)c(-c4cc(O)cc(O)c4)c23)cc1` [Compound 2, viniferifuran] gave an IC50 in series [1] (Homo sapiens, WS1, 48 h) of 33 ± 1.4 µM. For the same molecule, the MIC in series [2] (setting [8]) came to 16 µg/mL; in series [2] (setting [5]), 16 µg/mL; in series [2] (setting [6]), 35.4 µM. For the same molecule, the MBC in series [2] (setting [7]) was greater than 512 µg/mL.
